In BigSolDB 2.1:

NC(=O)CC[C@H](N)C(=O)O
solubility (mole fraction)
Settings | 283.15 K | 288.15 K | 293.15 K | 298.15 K | 303.15 K | 308.15 K | 313.15 K | 318.15 K | 323.15 K
in 2-butanone | 0.00015 | 0.00017 | 0.0002 | 0.000237 | 0.000271 | 0.000301 | 0.000338 | 0.000373 | 0.00041
in acetonitrile | 3.44e-05 | 6.77e-05 | 0.000104 | 0.000138 | 0.000164 | 0.000192 | 0.000225 | 0.000254 | 0.000283
in ethanol | 0.000273 | 0.000304 | 0.000337 | 0.000372 | 0.000408 | 0.000447 | 0.000494 | 0.000522 | 0.000584
in ethyl acetate | 2.94e-05 | 5.21e-05 | 0.000138 | 0.000218 | 0.000293 | 0.000362 | 0.000452 | 0.00054 | 0.000653
in isobutanol | 5.11e-05 | 0.000112 | 0.000163 | 0.000254 | 0.000348 | 0.000442 | 0.000556 | 0.000662 | 0.000798
in methanol | 9.5e-05 | 0.000101 | 0.000114 | 0.000134 | 0.000164 | 0.000205 | 0.00025 | 0.000286 | 0.000347
in n-butanol | 0.000184 | 0.00023 | 0.000291 | 0.00035 | 0.0004 | 0.000458 | 0.000522 | 0.000574 | 0.000635
in n-hexane | 0.000129 | 0.000196 | 0.000263 | 0.000346 | 0.000425 | 0.000494 | 0.000554 | 0.000621 | 0.000681
in n-pentanol | 8.57e-05 | 0.000109 | 0.000137 | 0.000163 | 0.000245 | 0.000335 | 0.000448 | 0.000556 | 0.000654
in n-propanol | 8.13e-05 | 0.000115 | 0.000156 | 0.000189 | 0.000227 | 0.000266 | 0.000321 | 0.000375 | 0.000434
in sec-butanol | 5.51e-05 | 0.000106 | 0.00017 | 0.000231 | 0.000281 | 0.000353 | 0.00042 | 0.000501 | 0.000593
in water | 0.00356 | 0.00409 | 0.00471 | 0.00533 | 0.00595 | 0.00682 | 0.00811 | 0.0097 | 0.0121
